The values below come from PubChem BioAssay (NCI).

Among the test systems are HCC-2998 colon; M14 melanoma; MALME-3M melanoma; NCI-H522 lung; OVCAR-5 ovarian; SN12C renal; T-47D breast; UACC-257 melanoma; OVCAR-4 ovarian.
Test in all cases: inhibition of tumour cell growth, NCI panel, 48 h

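Step 1: Grow cells in 96-well plates. Step 2: Expose to compound for 48 hours at 5 concentrations. Step 3: Interpolate endpoints linearly; if unreached, use highest concentration. Definition used: TGI = concentration required for complete inhibition of growth.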

With `CCOC(=O)CC(C)C(C#N)(OP1(=O)OC(c2ccccc2)C(C)N1C)c1ccccc1` (stereo not given), the TGI with HCC-2998 colon, in the assay with M14 melanoma, in the assay with MALME-3M melanoma, in the assay on NCI-H522 lung, with OVCAR-5 ovarian and in the assay on SN12C renal was greater than 100 µM throughout. The TGI in the assay on T-47D breast and in the assay on UACC-257 melanoma was greater than 100 µM throughout.

For the molecule `Cc1cc(-c2ccc(C(=O)C(Cl)(Cl)Cl)[nH]2)on1`, the TGI in the assay on M14 melanoma was greater than 100 µM; in the assay on MALME-3M melanoma, greater than 100 µM; with NCI-H522 lung, 97.4 µM; in the assay with OVCAR-4 ovarian, 70.1 µM; in the assay with OVCAR-5 ovarian, 73 µM; with SN12C renal, 43.2 µM. In addition, the TGI in the assay on T-47D breast and in the assay with UACC-257 melanoma was greater than 100 µM in each case.

With `Fc1cccc(F)c1C1SCC2=Nc3ccccc3CN21` (stereo not given), the TGI in the assay with HCC-2998 colon, in the assay with M14 melanoma, with OVCAR-4 ovarian, in the assay with OVCAR-5 ovarian, in the assay with SN12C renal and in the assay with T-47D breast was greater than 100 µM in each case. Besides, the TGI in the assay with UACC-257 melanoma was greater than 100 µM.

Regarding `COC(=O)/C(=C/c1ccc(OC)cc1)C(C(=O)O)=C(C)C`, the TGI with HCC-2998 colon, in the assay on M14 melanoma, in the assay on MALME-3M melanoma, with NCI-H522 lung, with OVCAR-5 ovarian and in the assay with SN12C renal was greater than 100 µM each time. In addition, the TGI in the assay with UACC-257 melanoma is greater than 100 µM.

Take `COc1c2cc(C(C)(C)C)cc1CSCc1cc(C(C)(C)C)cc(c1OC)CCCCC2`: the TGI in the assay on HCC-2998 colon, in the assay on M14 melanoma, with MALME-3M melanoma, with OVCAR-5 ovarian, in the assay on SN12C renal and in the assay on T-47D breast was greater than 50 µM in each case. Further, in the assay with UACC-257 melanoma, the TGI stood at 49.1 µM.

On to `O=S(=O)(O)c1cc(Cl)c(O)c2ncc(Cl)cc12`, for which the TGI with HCC-2998 colon, in the assay with M14 melanoma, in the assay with OVCAR-4 ovarian, in the assay with OVCAR-5 ovarian, with SN12C renal and in the assay on T-47D breast was greater than 100 µM each time. Besides, in the assay with UACC-257 melanoma, the TGI is greater than 100 µM.

On to `CC(C)(C)C1CCC2c3c([nH]c4ccccc34)C3C(=O)N(c4cc(Br)cc(Br)c4)C(=O)C3C2C1` (stereo not given), for which the TGI in the assay on HCC-2998 colon is 24.7 µM; with M14 melanoma, greater than 100 µM; with MALME-3M melanoma it was greater than 100 µM; in the assay on NCI-H522 lung, 66.4 µM; with OVCAR-4 ovarian, 69.7 µM; with OVCAR-5 ovarian, greater than 100 µM. Moreover, the TGI with SN12C renal is 29.1 µM; with UACC-257 melanoma, greater than 100 µM.

In the case of `CCOC(=O)C1NCCc2c1[nH]c1ccccc21` (stereo not given), the TGI in the assay with HCC-2998 colon, in the assay on M14 melanoma, in the assay with MALME-3M melanoma, with NCI-H522 lung, in the assay on OVCAR-4 ovarian and in the assay on SN12C renal was greater than 10 µM each time. The TGI in the assay with T-47D breast and in the assay with UACC-257 melanoma was greater than 10 µM in each case.

With `COc1ccc(C[C@@H]2CN(C(=O)c3ccccc3)[C@H](Cc3ccc(O)cc3)CN2C(=O)c2ccccc2)cc1Br`, the TGI in the assay on HCC-2998 colon, with M14 melanoma, in the assay with MALME-3M melanoma, in the assay on OVCAR-4 ovarian, with OVCAR-5 ovarian and with SN12C renal was greater than 100 µM each time. The TGI with T-47D breast and in the assay with UACC-257 melanoma was greater than 100 µM in each case.

For `COc1ccc(-c2nc3ncccn3c2-c2ccc(S(C)=O)cc2)cc1` (stereo not given), the TGI in the assay with M14 melanoma, in the assay on OVCAR-4 ovarian, with OVCAR-5 ovarian, in the assay on SN12C renal and with UACC-257 melanoma was greater than 100 µM throughout.

Turning to `COC(=O)OC[C@H]1O[C@@H](n2cc(C)c(=O)[nH]c2=O)CC1OC(=O)OC` (stereo not given in full), the TGI in the assay on HCC-2998 colon, with M14 melanoma, in the assay with MALME-3M melanoma, with NCI-H522 lung, with OVCAR-4 ovarian and in the assay with OVCAR-5 ovarian was greater than 100 µM in each case. The TGI in the assay on SN12C renal and with T-47D breast was greater than 100 µM throughout.

Turning to `O=C1Nc2ccccc2C(=O)OC(Cc2ccccc2)=Nc2ccccc21`, the TGI with HCC-2998 colon, in the assay with M14 melanoma, with NCI-H522 lung, in the assay with OVCAR-4 ovarian, in the assay with OVCAR-5 ovarian and with SN12C renal was greater than 100 µM each time. The TGI in the assay with T-47D breast and with UACC-257 melanoma was greater than 100 µM each time.

For the molecule `NCCC1(N)CCNCC1`, the TGI with M14 melanoma, in the assay on MALME-3M melanoma, in the assay on NCI-H522 lung, with OVCAR-4 ovarian, in the assay with OVCAR-5 ovarian and in the assay on SN12C renal was greater than 100 µM throughout. The TGI with T-47D breast and in the assay with UACC-257 melanoma was greater than 100 µM in each case.

In the case of `COC(=O)[C@]1(C)CCCn2c(=O)n(-c3ccccc3)c(=O)n21`, the TGI in the assay with HCC-2998 colon, in the assay on M14 melanoma, with NCI-H522 lung, with OVCAR-4 ovarian, with OVCAR-5 ovarian and with SN12C renal was greater than 100 µM each time. Moreover, the TGI in the assay with T-47D breast and with UACC-257 melanoma was greater than 100 µM throughout.

For the molecule `COC(=O)C(=O)C(C(=O)C(=O)Nc1ccccc1C(=O)OC)c1nc2ccc(C(=O)c3ccccc3)cc2[nH]c1=O` (stereo not given), the TGI in the assay with M14 melanoma is greater than 100 µM; in the assay on MALME-3M melanoma, greater than 100 µM; in the assay on NCI-H522 lung, greater than 100 µM; with OVCAR-4 ovarian, 88.8 µM; with OVCAR-5 ovarian it was greater than 100 µM; in the assay with SN12C renal, greater than 100 µM. The TGI with T-47D breast and in the assay on UACC-257 melanoma was greater than 100 µM throughout.

On to `Cc1ncc([N+](=O)[O-])n1CCN(C)CCCCn1ccnc1[N+](=O)[O-]`, for which the TGI in the assay with HCC-2998 colon, in the assay with M14 melanoma, with MALME-3M melanoma, with OVCAR-4 ovarian, in the assay with OVCAR-5 ovarian and in the assay on SN12C renal was greater than 100 µM throughout. Also, the TGI with T-47D breast and in the assay on UACC-257 melanoma was greater than 100 µM each time.

In the case of `CN(C)[C@@H]1C(=O)C(C(N)=O)=C(O)[C@@]2(O)C(=O)C3=C(O)c4c(O)cccc4C[C@H]3C[C@@H]12`, the TGI was determined as 3.87 µM with M14 melanoma, 2.92 µM in the assay with MALME-3M melanoma, 4.29 µM with NCI-H522 lung and 3.26 µM in the assay on OVCAR-4 ovarian.
